Results published in PMC7287874 (2020).
Blank lines part the entries; values can stand above or below the compound they belong to.

Experiments:
[1] = tested on: GR RNA, crystallized (RNA, riboswitch) GGACAUAUAAUCGCGUGGAUAUGGCACGCAAGUUUCUACCGGGCACCGUAAAUGUCCGACUAUGUCC; test: X-ray crystallography; conditions: cobalt hexammine 30–50 mM, ammonium acetate 600–650 mM, 10 mM K-HEPES pH 7.5, PEG 3000, 24 °C
[2] = tested on: GR wild type (xpt-pbuX guanine riboswitch aptamer) (RNA, riboswitch) GGACAUAUAAUCGCGUGGAUAUGGCACGCAAGUUUCUACCGGGCACCGUAAAUGUCCGACUAUGUCCA; test: ITC; conditions: 100 mM KCl, 20 mM MgCl2, 50 mM K-HEPES, pH 7.5, 25 °C; for KD: single-site fit; for binding: no binding, highest concentration for this compound not stated
[3] = tested on: GR(A19C-U77G) (RNA, riboswitch) GGACCUAUAAUCGCGUGGAUAUGGCACGCAAGUUUCUACCGGGCACCGUAAAUGUCCGACUAGGUCCA; test: ITC; conditions: 100 mM KCl, 20 mM MgCl2, 50 mM K-HEPES; pH 7.5, 25 °C, single-site fit
[4] = tested on: GR A19G U77C (RNA, riboswitch) GGACGUAUAAUCGCGUGGAUAUGGCACGCAAGUUUCUACCGGGCACCGUAAAUGUCCGACUACGUCCA; test: ITC; conditions: 100 mM KCl, 20 mM MgCl2, 50 mM K-HEPES; pH 7.5, 25 °C, single-site fit
[5] = tested on: GR A19G C74U U77C (RNA, riboswitch) GGACGUAUAAUCGCGUGGAUAUGGCACGCAAGUUUCUACCGGGCACCGUAAAUGUCCGAUUACGUCCA; test: ITC; conditions: 100 mM KCl, 20 mM MgCl2, 50 mM K-HEPES; pH 7.5, 25 °C, single-site fit
[6] = tested on: GR(C74G) (RNA, riboswitch) GGACAUAUAAUCGCGUGGAUAUGGCACGCAAGUUUCUACCGGGCACCGUAAAUGUCCGAGUAUGUCCA; test: ITC; conditions: 100 mM KCl, 20 mM MgCl2, 50 mM K-HEPES; pH 7.5, 25 °C, single-site fit
[7] = tested on: GR A19C C74U U77G (RNA, riboswitch) GGACCUAUAAUCGCGUGGAUAUGGCACGCAAGUUUCUACCGGGCACCGUAAAUGUCCGAUUAGGUCCA; test: ITC; conditions: 100 mM KCl, 20 mM MgCl2, 50 mM K-HEPES; pH 7.5, 25 °C, single-site fit
[8] = tested on: GR(C74U) (RNA, riboswitch) GGACAUAUAAUCGCGUGGAUAUGGCACGCAAGUUUCUACCGGGCACCGUAAAUGUCCGAUUAUGUCCA; test: ITC; conditions: 100 mM KCl, 20 mM MgCl2, 50 mM K-HEPES; pH 7.5, 25 °C, single-site fit
[9] = tested on: GR A19U U77A (RNA, riboswitch) GGACUUAUAAUCGCGUGGAUAUGGCACGCAAGUUUCUACCGGGCACCGUAAAUGUCCGACUAAGUCCA; test: ITC; conditions: 100 mM KCl, 20 mM MgCl2, 50 mM K-HEPES; pH 7.5, 25 °C, single-site fit
[10] = tested on: GR(C74A) (RNA, riboswitch) GGACAUAUAAUCGCGUGGAUAUGGCACGCAAGUUUCUACCGGGCACCGUAAAUGUCCGAAUAUGUCCA; test: ITC; conditions: 100 mM KCl, 20 mM MgCl2, 50 mM K-HEPES; pH 7.5, 25 °C, single-site fit
[11] = tested on: GR A19G U77 (RNA, riboswitch) GGACGUAUAAUCGCGUGGAUAUGGCACGCAAGUUUCUACCGGGCACCGUAAAUGUCCGACUAUGUCCA; test: ITC; conditions: 100 mM KCl, 20 mM MgCl2, 50 mM K-HEPES; pH 7.5, 25 °C, single-site fit
[12] = tested on: GR A19U C74U U77A (RNA, riboswitch) GGACUUAUAAUCGCGUGGAUAUGGCACGCAAGUUUCUACCGGGCACCGUAAAUGUCCGAUUAAGUCCA; test: ITC; conditions: 100 mM KCl, 20 mM MgCl2, 50 mM K-HEPES; pH 7.5, 25 °C, single-site fit

SMILES: CC1CC(O)n2c(nc3[nH]cnc3c2=O)N1 (stereo not shown)
KD [2]: 79,000 ± 1000 nM

SMILES: COc1nc(N)nc2[nH]cnc12
KD [2]: 6400 ± 400 nM

SMILES: NS(=O)(=O)c1ccc(Nc2nc(OCC3CCCCC3)c3nc[nH]c3n2)cc1
KD [2]: 5600 ± 600 nM

SMILES: Nc1nc(Cl)c2[nH]cnc2n1
KD [2]: 340 ± 30 nM

SMILES: Nc1nc(NC2CC2)c2nc[nH]c2n1
KD [2]: 25,000 ± 3000 nM

SMILES: Nc1nc(OCC2CCCCC2)c2[nH]cnc2n1
binding [1]: yes
KD [2]: 17,000 ± 1000 nM

SMILES: Nc1nc(OCc2ccccc2)c2[nH]cnc2n1
binding [2]: no

SMILES: Nc1nc2[nH]c(N)nc2c(=O)[nH]1
binding [1]: yes
KD [2]: 36 ± 13 nM

SMILES: Nc1nc2[nH]c(O)nc2c(=O)[nH]1
KD [2]: 10 ± 4 nM

SMILES: Nc1nc2c(=O)[nH]cnc2[nH]1
KD [2]: 14,000 ± 1000 nM

SMILES: O=c1[nH]cnc2nc[nH]c12
KD [2]: 240 ± 30 nM

SMILES: O=c1c2[nH]cnc2nc2ncccn12
binding [2]: no

The remaining lines, values ahead:

binding [1]: yes
KD [2]: 300 ± 10 nM
SMILES: CC(=O)Nc1nc2[nH]cnc2c(=O)[nH]1

KD [2]: 230,000 ± 10,000 nM
SMILES: CC(C)(C)C(=O)Nc1nc2[nH]cnc2c(=O)[nH]1

KD [2]: 7.4 ± 0.5 nM
KD [3]: 4.5 ± 2.0 nM
SMILES: CC(C)C(=O)Nc1nc2[nH]cnc2c(=O)[nH]1

KD [2]: 17,000 ± 1000 nM
SMILES: CNc1nc2[nH]cnc2c(=O)[nH]1

binding ([1]; 1.6 Å): yes
KD [2]: 2.1 ± 0.7 nM
KD [3]: 0.85 ± 0.31 nM
SMILES: Nc1nc2[nH]cnc2c(=O)[nH]1

KD [4]: 4.9 ± 1.2 nM
KD [5]: 44,000 ± 4000 nM
KD [6]: 42,000 ± 2000 nM
KD [7]: 4100 ± 400 nM
KD [8]: 7500 ± 800 nM
KD [9]: 7.8 ± 1.6 nM
KD [2]: 8.8 ± 0.5 nM
KD [10]: 85,000 ± 25,000 nM
KD [3]: 2.2 ± 0.6 nM
KD [11]: 5.4 ± 1.2 nM
KD [12]: 66,000 ± 5000 nM
SMILES: O=C(COc1ccccc1)Nc1nc2[nH]cnc2c(=O)[nH]1
